Laboratory results taken from patent publication US9974849B2, “Human Papilloma virus therapeutic vaccine” (The Board of Trustees of the University of Arkansas, priority 2013, dated 2018).

Columns and labels:
[1] = Solubilizing HPV E6 peptides in buffer; assay type: physicochemical
Protocol: We attempted to make a pharmaceutical formulation with four HPV E6 peptides. The 4 peptides were peptides consisting of residues 1-45, 46-80, 81-115, and 116-158 of SEQ ID NO:1. Each of the peptides was amidated at its carboxyl terminus and acetylated at its amino terminus. The peptides were each chemically synthesized.
For the pharmaceutical formulation, this was mixed with trehalose as a stabilizing agent and glycine as tonicity modifier. The final concentrations of the formulation were 10 mM glutamate, 1.0% w/v trehalose, 2.0% w/v glycine, and 0.714 mg/ml each of the four peptides.

[2] = test system: CD3 T cells co-cultured with autologous LCs; test: T cell proliferation induced by treated LCs (alamarBlue); assay type: cell-based, human; settings: 7 days co-culture

Substance	Solubility ([1]; added to 10 mM glutamate, pH 4.0 solution already containing solubilized E6 1-45, E6 46-80, E6 116-158, 5 mg/ml for each of the four peptides)	Solubility ([1]; alone, in any suitable buffer for manufacturing)	Subjects with measurable proliferation (increased fluorescence of ≥5000) [2]	T-cell proliferation ([2]; over media)
Ac-SEYRHYCYSLYGTTLEQQYNK PLCDLLIRCINCQK-NH2 [E6 81-115]	could be solubilized and will stay soluble	insoluble		
tetanus toxoid			subjects 2 and 5	no significant increase over media
